Source: ChEMBL document CHEMBL1201862, “PubChem BioAssay data set” (2004)
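A five-concentration, 48-hour dose response in 96-well plates underlies each endpoint, interpolated linearly between surrounding concentrations. GI50 = concentration required for 50% inhibition of growth.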 Active and inactive are the calls of the source. No stated cut-off is given here; in the data, active = GI50 up to about 1.1 µM and inactive = higher.

Key:
Assay in all cases: NCI-60 cell line screen, 48 h
ACHN = system: ACHN
KM12 = system: KM12
UO-31 = system: UO-31
SW-620 = system: SW-620
NCI-H226 = system: NCI-H226
UACC-257 = system: UACC-257
Malme-3M = system: Malme-3M
SF-539 = system: SF-539
HCT-116 = system: HCT-116
A498 = system: A498
CAKI-1 = system: CAKI-1
SK-MEL-28 = system: SK-MEL-28
CCRF-CEM = system: CCRF-CEM
HCT-15 = system: HCT-15
MOLT-4 = system: MOLT-4
LOX IMVI = system: LOX IMVI
SF-268 = system: SF-268
DMS-273 = system: DMS-273
SNB-19 = system: SNB-19
UACC-62 = system: UACC-62
HOP-92 = system: HOP-92
RXF 393 = system: RXF 393
KM-20L2 = system: KM-20L2
EKVX = system: EKVX
SNB-75 = system: SNB-75
OVCAR-3 = system: OVCAR-3
U-251 = system: U-251
SNB-78 = system: SNB-78
OVCAR-5 = system: OVCAR-5
SK-OV-3 = system: SK-OV-3
IGROV-1 = system: IGROV-1
SF-295 = system: SF-295
K562 = system: K562
A549 = system: A549
M14 = system: M14
HCC 2998 = system: HCC 2998
NCI-H23 = system: NCI-H23
TK-10 = system: TK-10
HL-60 = system: HL-60
786-0 = system: 786-0
HT-29 = system: HT-29
NCI-H522 = system: NCI-H522
M19-MEL = system: M19-MEL
SK-MEL-5 = system: SK-MEL-5
OVCAR-8 = system: OVCAR-8
OVCAR-4 = system: OVCAR-4
SK-MEL-2 = system: SK-MEL-2
HOP-62 = system: HOP-62
SN12C = system: SN12C
COLO 205 = system: COLO 205
RPMI-8226 = system: RPMI-8226
SR = system: SR
NCI-H460 = system: NCI-H460
DMS-114 = system: DMS-114
LXFL 529 = system: LXFL 529
BT-549 = system: BT-549
NCI/ADR-RES = system: NCI/ADR-RES
DU-145 = system: DU-145
MCF7 = system: MCF7
PC-3 = system: PC-3
MDA-MB-435 = system: MDA-MB-435
Hs-578T = system: Hs-578T
MDA-MB-231 = system: MDA-MB-231
MDA-N = system: MDA-N
T47D = system: T47D

Measured: GI50

COc1cccc(/C=N/C23CC4CC(CC(C4)C2)C3)c1
> 100 µM: HCT-15
inactive: ACHN > 100 µM | KM12 > 100 µM | UO-31 > 100 µM | SW-620 > 100 µM | NCI-H226 > 100 µM | UACC-257 > 100 µM | Malme-3M > 100 µM | SF-539 > 100 µM | HCT-116 > 100 µM | A498 > 100 µM | CAKI-1 > 100 µM | SK-MEL-28 > 100 µM | CCRF-CEM > 100 µM | MOLT-4 > 100 µM | LOX IMVI > 100 µM | SF-268 > 100 µM | DMS-273 > 100 µM | SNB-19 > 100 µM | UACC-62 > 100 µM | HOP-92 > 100 µM | RXF 393 > 100 µM | KM-20L2 > 100 µM | EKVX > 100 µM | SNB-75 55.5 µM | OVCAR-3 > 100 µM | U-251 > 100 µM | SNB-78 > 100 µM | OVCAR-5 > 100 µM | SK-OV-3 > 100 µM | IGROV-1 > 100 µM | SF-295 > 100 µM | K562 > 100 µM | A549 > 100 µM | M14 > 100 µM | HCC 2998 > 100 µM | NCI-H23 > 100 µM | TK-10 > 100 µM | HL-60 > 100 µM | 786-0 > 100 µM | HT-29 > 100 µM | NCI-H522 > 100 µM | M19-MEL > 100 µM | SK-MEL-5 > 100 µM | OVCAR-8 > 100 µM | OVCAR-4 > 100 µM | SK-MEL-2 > 100 µM | HOP-62 > 100 µM | SN12C > 100 µM | COLO 205 > 100 µM | RPMI-8226 > 100 µM | SR > 100 µM | NCI-H460 > 100 µM

COC(=O)C1=C(C)N2CCSC2(C)C(C(=O)OC)C1c1cccc(Cl)c1 (stereo not given)
inactive: ACHN 24.8 µM | KM12 18.8 µM | UO-31 13.2 µM | DMS-114 19.8 µM | SW-620 37.1 µM | LXFL 529 20 µM | NCI-H226 19.2 µM | UACC-257 4.89 µM | SF-539 11.5 µM | HCT-116 13.6 µM | CAKI-1 14 µM | SK-MEL-28 19.1 µM | CCRF-CEM 23.1 µM | MOLT-4 14.6 µM | SF-268 18.7 µM | SNB-19 16.6 µM | UACC-62 12.8 µM | HOP-92 13.4 µM | RXF 393 21.9 µM | KM-20L2 17.5 µM | EKVX 12.6 µM | SNB-75 10.2 µM | OVCAR-3 15.6 µM | IGROV-1 20.8 µM | SF-295 13.9 µM | K562 17.5 µM | A549 20.4 µM | M14 30.1 µM | HCC 2998 21 µM | NCI-H23 20.5 µM | TK-10 41.9 µM | HL-60 12.4 µM | HT-29 16.6 µM | M19-MEL 16 µM | SK-MEL-5 14.5 µM | OVCAR-8 22.6 µM | OVCAR-4 49.7 µM | SK-MEL-2 17.7 µM | HOP-62 18.9 µM | COLO 205 18.5 µM | RPMI-8226 10.3 µM | SR 15.5 µM | NCI-H460 18.8 µM

COC(=O)CCC(=O)NC1=C(Nc2ccccc2)C(=O)c2ccccc2C1=O
11.2 µM: HCT-15
inactive: ACHN 14.9 µM | KM12 15.7 µM | UO-31 17.9 µM | SW-620 11.4 µM | NCI-H226 14.6 µM | UACC-257 2.84 µM | Malme-3M 2.55 µM | SF-539 13 µM | HCT-116 9.71 µM | A498 15 µM | CAKI-1 14.4 µM | SK-MEL-28 8.51 µM | BT-549 10.6 µM | CCRF-CEM 9.95 µM | MOLT-4 12.1 µM | NCI/ADR-RES 14.8 µM | LOX IMVI 4.34 µM | SF-268 13.2 µM | SNB-19 17.2 µM | UACC-62 3.67 µM | HOP-92 15 µM | RXF 393 8.81 µM | EKVX 16.6 µM | DU-145 10.8 µM | SNB-75 18.3 µM | OVCAR-3 2.94 µM | MCF7 3.89 µM | U-251 11.7 µM | PC-3 12.4 µM | MDA-MB-435 1.97 µM | OVCAR-5 9.27 µM | SK-OV-3 12.9 µM | IGROV-1 11.5 µM | Hs-578T 7.18 µM | SF-295 15.4 µM | K562 14.8 µM | A549 18.8 µM | M14 3.58 µM | HCC 2998 22.9 µM | NCI-H23 4.28 µM | TK-10 22.5 µM | MDA-MB-231 9.66 µM | HL-60 3.36 µM | 786-0 12.3 µM | HT-29 16.9 µM | MDA-N 2.04 µM | NCI-H522 14.8 µM | SK-MEL-5 1.83 µM | OVCAR-8 11.4 µM | OVCAR-4 10.5 µM | SK-MEL-2 5.57 µM | HOP-62 17.8 µM | SN12C 13.6 µM | COLO 205 16.7 µM | RPMI-8226 13.2 µM | SR 11.4 µM | T47D 13.3 µM | NCI-H460 15.3 µM
